Data as given in patent US12509437B2, “Substituted thiophene carboxamides and derivatives thereof as microbicides” (Bayer Aktiengesellschaft, priority 2019, dated 2025).
Read-outs that look alike come from different tables or passages of the source.

How the values were obtained:
[1] = LogP by HPLC on reversed phase columns (EEC directive 79/831 Annex V.A8); assay type: physicochemical; conditions: reversed phase HPLC columns
Procedure, shortened: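 LogP derived from retention time, interpolated linearly between bracketing alkan-2-one standards (3 to 16 carbons). Where several values exist for one method, all are listed with "+"; UV spectra 200–400 nm at peak maxima gave lambda-max.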

[2] = tested on: salicylate responsive promoter sequence of the PR1 (pathogenesis-related protein I) gene (AT2G14610); experiment: Induction of defense gene expression in Arabidopsis thaliana (PR1 promoter-GFP reporter plants); assay type: in vivo; conditions: 72 h, 3rd day after spraying, mock treated leaves set as 1.00, read-out: relative fluorescence value
Description: Arabidopsis thaliana reporter plants containing the coding sequence of a green fluorescent protein (GFP) linked to the salicylate responsive promoter sequence of the PR1 (pathogenesis-related protein I) gene (AT2G14610) were grown for five days and then sprayed with compounds. On the 3rd day after spraying, plant fluorescence was assessed with a MacroFluo instrument from Leica Microsystems (Wetzlar, Germany). Fluorescences were quantified with the Meta-Morph Microscopy Automation & Image Analysis Software (Molecular Devices, Sunnyvale, Calif., United States). Background fluorescence in mock treated leaves was set as 1.00.

Peronospora parasitica = experiment: In vivo preventive test on Peronospora parasitica (Crucifer downy mildew) on cabbage; conditions: Hyaloperonospora parasitica, 120 h, sprayed 72 hours before inoculation, evaluated 5 days after inoculation, read-out: efficacy; for pest or weed control at 31 ppm: 31 ppm of active ingredient; for pest or weed control at 125 ppm: 125 ppm of active ingredient; for pest or weed control at 500 ppm: 500 ppm of active ingredient
Description: (§1) The tested active ingredients were prepared by homogenization in a mixture of acetone/Dimethyl sulfoxide/Tween®, and then diluted with water to obtain the desired active material concentration.
(§2) The young plants of cabbage were treated by spraying the active ingredient prepared as described above. Control plants were treated only with an aqueous solution of acetone/Dimethyl sulfoxide/Tween®.
After 72 hours, the plants were contaminated by spraying the leaves with an aqueous suspension of Peronospora parasitica spores. The contaminated cabbage plants were incubated for 5 days at 20° C. and at 100% relative humidity.
The test was evaluated 5 days after the inoculation. 0% means an efficacy which corresponds to that of the control plants while an efficacy of 100% means that no disease was observed.

[3] = tested on: Xanthomonas campestris pv. campestris; experiment: In vivo preventive test on Xanthomonas campestris pv. campestris (black rot on cabbage); conditions: Xanthomonas campestris, sprayed 72 hours before inoculation, evaluated 8 or 10 days after inoculation, read-out: efficacy; for pest or weed control at 31 ppm: 31 ppm of active ingredient; for pest or weed control at 125 ppm: 125 ppm of active ingredient
Description: as §1, §2
After 72 hours, the plants were contaminated by spraying the leaves with an aqueous bacteria suspension of Xanthomonas campestris pv. campestris. The contaminated cabbage plants were incubated for 8 or 10 days at 27° C. at 95% relative humidity.
The test was evaluated 8 or 10 days after the inoculation. 0% means an efficacy which corresponds to that of the control plants while an efficacy of 100% means that no disease was observed.

Uromyces appendiculatus = experiment: In vivo preventive test on Uromyces appendiculatus (bean rust); conditions: 240 h, sprayed 72 hours before inoculation, evaluated 10 days after inoculation, read-out: efficacy; for pest or weed control at 31 ppm: 31 ppm of active ingredient; for pest or weed control at 125 ppm: 125 ppm of active ingredient; for pest or weed control at 500 ppm: 500 ppm of active ingredient
Description: as §1
(§3) The young plants of bean were treated by spraying the active ingredient prepared as described above. Control plants were treated only with an aqueous solution of acetone/Dimethyl sulfoxide/Tween®.
After 72 hours, the plants were contaminated by spraying the leaves with an aqueous suspension of Uromyces appendiculatus spores. The contaminated bean plants were incubated for 24 hours at 20° C. and at 100% relative humidity and then for 9 days at 20° C. and at 70-80% relative humidity.
The test was evaluated 10 days after the inoculation. 0% means an efficacy which corresponds to that of the control plants while an efficacy of 100% means that no disease was observed.

Alternaria alternata = Alternaria alternata in vitro cell test; assay type: cell-based; conditions: 120 h, 5 days incubation, read-out: efficacy (inhibition of fungal growth; no direct activity); for inhibition at 5 ppm: 5 ppm of active ingredient; for inhibition at 20 ppm: 20 ppm of active ingredient
Description: (§4) • Solvent: DMSO • Culture medium: 14.6 g anhydrous D-glucose (VWR), 7.1 g Mycological Peptone (Oxoid), 1.4 g granulated Yeast Extract (Merck), QSP 1 liter • Inoculum: spores suspension Fungicides were solubilized in DMSO and the solution used to prepare the required range of concentrations. The final concentration of DMSO used in the assay was ≤[…]1%. A spore suspension of A. alternata was prepared and diluted to the desired spore density. Fungicides were evaluated for their ability to inhibit spore germination and mycelium growth in liquid culture assay. The compounds were added in the desired concentration to the culture medium with spores. After 5 days incubation, fungi-toxicity of compounds was determined by spectrometric measurement of mycelium growth. Inhibition of fungal growth was determined by comparing the absorbance values in wells containing the fungicides with the absorbance in control wells without fungicides.

[4] = tested on: Colletotrichum lindemuthianum; experiment: Colletotrichum lindemuthianum in vitro cell test; assay type: cell-based; conditions: 144 h, 6 days incubation, read-out: efficacy (inhibition of fungal growth; no direct activity); for inhibition at 5 ppm: 5 ppm of active ingredient; for inhibition at 20 ppm: 20 ppm of active ingredient
Description: as §4, with “of C. lindemuthianum” for “of A. alternata”, “inhibit spores” for “inhibit spore”, “After 6” for “After 5”

[5] = tested on: Xanthomonas campestris pv. campestris; experiment: Xanthomonas campestris pv. campestris in vitro cell test; assay type: cell-based; conditions: 24 h of incubation, read-out: efficacy (inhibition of bacteria growth; no direct activity); for inhibition at 5 ppm: 5 ppm of active ingredient; for inhibition at 20 ppm: 20 ppm of active ingredient
Description: (§5) • Solvent: DMSO • Culture medium: LB broth medium (Luria Broth Miller) Sigma • Inoculum: bacteria suspension Compounds were solubilized in DMSO and the solution used to prepare the required range of concentrations. The final concentration of DMSO used in the assay was ≤1%. Inoculum was prepared from a pre-culture of bacteria grown in liquid medium and diluted to the desired optical density (OD). Compounds were evaluated for their ability to inhibit bacteria growth in liquid culture assay. The compounds were added in the desired concentrations to culture medium containing the bacteria suspension. After 24 h of incubation, the efficacy of compounds was determined by spectrometric measurement of bacteria growth. Inhibition was determined by comparing the absorbance values in wells containing the compounds with the absorbance in control wells without active ingredients.

[6] = tested on: Pseudomonas syringae pv. tomato; experiment: Pseudomonas syringae pv. tomato in vitro cell test; assay type: cell-based; conditions: 20 ppm of active ingredient, 24 h of incubation, read-out: efficacy (inhibition of bacteria growth; no direct activity)
Description: as §5

[7] = tested on: Colletotrichum lindemuthianum; experiment: In vivo preventive test on Colletotrichum lindemuthianum (Anthracnose on bean); conditions: Colletotrichum lindemuthianum, 144 h, sprayed 72 hours before inoculation, evaluated 6 days after inoculation, read-out: efficacy
Description: as §1, §3
After 72 hours, the plants were contaminated by spraying the leaves with an aqueous suspension of Colletotrichum lindemuthianum spores. The contaminated bean plants were incubated for 24 hours at 20° C. and at 100% relative humidity and then for 5 days at 20° C. and at 90% relative humidity.
The test was evaluated 6 days after the inoculation. 0% means an efficacy which corresponds to that of the control plants while an efficacy of 100% means that no disease was observed.

Row | Structure (SMILES) | chromatographic logP ([1]; method [a]) | fold induction at 75 ppm [2] | fold induction at 300 ppm [2] | pest or weed control at 31 ppm (Peronospora parasitica) [%] | pest or weed control at 125 ppm (Peronospora parasitica) [%] | pest or weed control at 500 ppm (Peronospora parasitica) [%] | pest or weed control at 31 ppm [3] [%] | pest or weed control at 31 ppm (Uromyces appendiculatus) [%] | pest or weed control at 125 ppm (Uromyces appendiculatus) [%] | pest or weed control at 500 ppm (Uromyces appendiculatus) [%] | inhibition at 5 ppm (Alternaria alternata) [%] | inhibition at 5 ppm [4] [%] | inhibition at 5 ppm [5] [%] | inhibition at 20 ppm [5] [%] | inhibition at 20 ppm [6] [%] | inhibition at 20 ppm (Alternaria alternata) [%] | inhibition at 20 ppm [4] [%] | pest or weed control at 125 ppm [3] [%] | also measured
1 | CCSC(=O)C1(NC(=O)c2sc(Cl)c(Cl)c2C)CC1 [I.049, S-ethyl 1-{[(4,5-dichloro-3-methyl-2-thienyl)carbonyl]amino}cyclopropanecarbothioate] |  | > 2 | > 2 | 90 to 100 | 90 to 100 | 90 to 100 | 80 to 89 | 70 to 79 | 90 to 100 | 80 to 89 | ≤ 30 | ≤ 30 | ≤ 30 | ≤ 30 | ≤ 30 |  |  |  | chromatographic logP ([1]; preparation examples, method not indicated, read-out: Log P): 3.67; pest or weed control at 500 ppm ([3]; 500 ppm of active ingredient): 80 to 89%
2 | Cc1c(C(=O)NC(Cc2c[nH]c3ccccc23)C(=O)O)sc(Cl)c1Cl (stereo not drawn) [I.070] | 3.12 |  | > 2 | 70 to 79 | 90 to 100 | 90 to 100 | 70 to 79 |  |  | 90 to 100 | ≤ 30 | ≤ 30 | ≤ 30 | ≤ 30 | ≤ 30 | ≤ 30 | ≤ 30 | 80 to 89 | 
3 | Cc1c(C(=O)NC(CC(N)=O)C(=O)O)sc(Br)c1Br (stereo not drawn) [I.076] | 1.73 |  | > 2 |  | 90 to 100 | 90 to 100 | 70 to 79 |  | 80 to 89 | 90 to 100 | ≤ 30 | ≤ 30 | ≤ 30 | ≤ 30 | ≤ 30 | ≤ 30 | ≤ 30 |  | 
4 | COC(=O)[C@H](CCCNC(=N)N)NC(=O)c1sc(Br)c(Br)c1C [I.035] | 1.74 |  | > 2 |  | 70 to 79 | 80 to 89 |  |  | 80 to 89 | 80 to 89 | ≤ 30 | ≤ 30 | ≤ 30 | ≤ 30 | ≤ 30 |  | ≤ 30 | 80 to 89 | 
5 | CCOC(=O)C(Cc1c[nH]c2ccccc12)NC(=O)c1sc(Cl)c(Cl)c1C (stereo not drawn) [I.040] | 4.08 | > 2 | > 2 |  |  | 90 to 100 |  |  |  |  |  |  | ≤ 30 | ≤ 30 | ≤ 30 |  |  |  | pest or weed control at 125 ppm ([7]; 125 ppm of active ingredient): 90 to 100%; pest or weed control at 500 ppm ([7]; 500 ppm of active ingredient): 90 to 100%

Now from value to molecule, other results behind:

Row | chromatographic logP ([1]; method [a]) | Structure (SMILES) | fold induction at 75 ppm [2] | fold induction at 300 ppm [2] | pest or weed control at 31 ppm (Peronospora parasitica) [%] | pest or weed control at 125 ppm (Peronospora parasitica) [%] | pest or weed control at 500 ppm (Peronospora parasitica) [%] | pest or weed control at 31 ppm [3] [%] | pest or weed control at 31 ppm (Uromyces appendiculatus) [%] | pest or weed control at 125 ppm (Uromyces appendiculatus) [%] | pest or weed control at 500 ppm (Uromyces appendiculatus) [%] | inhibition at 5 ppm (Alternaria alternata) [%] | inhibition at 5 ppm [4] [%] | inhibition at 5 ppm [5] [%] | inhibition at 20 ppm [5] [%] | inhibition at 20 ppm [6] [%] | inhibition at 20 ppm (Alternaria alternata) [%] | inhibition at 20 ppm [4] [%] | pest or weed control at 125 ppm [3] [%] | also measured
6 | 4.07 | CCOC(=O)C(NC(=O)c1sc(Cl)c(Cl)c1C)C(F)(F)F (stereo not drawn) [I.164] | > 2 | > 2 | 90 to 100 | 90 to 100 | ≥ 90 | 80 to 89 | 90 to 100 | 90 to 100 |  | ≤ 30 | ≤ 30 | ≤ 30 | ≤ 30 | ≤ 30 | ≤ 30 | ≤ 30 |  | 
7 | 3.5 | COC(=O)C1(NC(=O)c2sc(Cl)c(Cl)c2C)CCC1 [I.171] | > 2 | > 2 | 90 to 100 | 90 to 100 |  |  | 80 to 89 | 90 to 100 |  | ≤ 30 | ≤ 30 | ≤ 30 | ≤ 30 | ≤ 30 | ≤ 30 |  | 70 to 79 | 
8 | 2.43 | Cc1c(C(=O)NC(C)(C)C(=O)O)sc(Cl)c1Cl [I.174] | > 2 | > 2 |  | 90 to 100 |  |  | 90 to 100 | 90 to 100 |  | ≤ 30 | ≤ 30 | ≤ 30 | ≤ 30 | ≤ 30 | ≤ 30 | ≤ 30 | 70 to 79 | 
